Measured values taken from patent publication US20100056524A1, “Compound” (priority 2008, published 2010).
Counter-ions that a name gives are not always drawn. Like-named read-outs stand apart in the source and are kept apart here.

Tests used:
[1] = molecular target: T1, ERK8 (Homo sapiens, UniProt Q8TD08); test: ERK8 protein kinase assay; assay type: biochemical; details: for remaining activity at 10 µM: 10 μM compound; for residual kinase activity ERK8: 1 μm compound; for remaining activity at 1 µM: 1 μM compound
T1 construct: All protein kinases were of human origin and encoded full length proteins, unless indicated otherwise; His6; made in house; host or cells: insect Sf21 cells
T1 sequence (Q8TD08 1-544): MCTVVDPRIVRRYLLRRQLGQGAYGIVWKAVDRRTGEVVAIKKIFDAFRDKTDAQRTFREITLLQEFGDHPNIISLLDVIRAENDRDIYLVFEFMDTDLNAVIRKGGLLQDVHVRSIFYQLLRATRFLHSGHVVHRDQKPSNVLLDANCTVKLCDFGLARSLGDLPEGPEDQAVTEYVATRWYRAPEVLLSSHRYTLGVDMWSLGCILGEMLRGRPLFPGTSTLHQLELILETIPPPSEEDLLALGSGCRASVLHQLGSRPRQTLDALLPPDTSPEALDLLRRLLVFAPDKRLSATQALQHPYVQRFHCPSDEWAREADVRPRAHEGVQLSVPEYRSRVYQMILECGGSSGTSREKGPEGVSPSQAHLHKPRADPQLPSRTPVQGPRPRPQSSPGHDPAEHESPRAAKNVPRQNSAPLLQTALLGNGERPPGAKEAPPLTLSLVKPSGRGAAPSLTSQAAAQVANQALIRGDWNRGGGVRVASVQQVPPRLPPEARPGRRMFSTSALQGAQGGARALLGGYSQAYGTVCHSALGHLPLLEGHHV
Text: (§1) All protein kinases were of human origin and encoded full length proteins, unless indicated otherwise. They were either expressed as glutathione S-transferase (GST) fusion proteins in Escherichia Coli or as hexahistidine (His6)-tagged proteins in insect Sf21 cells. GST fusion proteins were purified by affinity chromatography on glutathione-Sepharose, and His6-tagged proteins on nickel/nitriloacetate-agarose. The procedures for expressing some of the protein kinases used herein have been detailed previously.^8,9 The following sections outline the DNA vectors synthesised and the procedures used to express and purifying protein kinases that have not been reported previously.
The following kinases were expressed in Sf21 cells: Aurora B and Aurora C, extra-cellular signal-regulated kinase 8 (ERK8), microtubule affinity regulating kinase 3 (MARK3), protein kinase Bα[118-480][S473D], protein kinase Bβ (PKBβ[120-481][S474D], 3-phosphoinositide-dependent protein kinase-1 [52-556]
(§2) All assays (25.5 μl) were carried out at room temperature (21° C.) and were linear with respect to time and enzyme concentration under the conditions used. Assays were performed for 30 min using Multidrop Micro reagent dispensers (Thermo Electron Corporation, Waltham, Mass. 02454, USA) in a 96-well format. The concentration of magnesium acetate in the assays was 10 mM and the [γ-33P] ATP (800 cpm/pmol) was used at 5, 20 or 50 μM as indicated, in order to be at or below the Km for ATP for each enzyme. Protein kinases assayed at 5 μM ATP were: —ERK1, ERK8, PKBα, MARK3, Aurora C. Protein kinases assayed at 20 μM ATP were: —JNK1, PDK1, CHK1, CHK2, CDK2 and Aurora B. Protein kinases assayed at 50 μM ATP were: —MNK2, IKKepsilon and TBK1.
(§3) The assays were initiated with MgATP, stopped by addition of 5 μl of 0.5 M orthophosphoric acid and spotted on to P81 filterplates using a unifilter harvester (PerkinElmer, Boston, Mass. 02118, USA). The IC50 values of inhibitors were determined after carrying out assays at 10 different concentrations of each compound.
ERK1 and ERK8 were both assayed against myelin basic protein (MBP, 0.33 mg/ml). MARK3 was assayed against the peptide […] (300 μM), MNK2 against the eIF4E protein (0.5 mg/ml). PKBβ was assayed against the peptide […] (30 μM). TBK1 were assayed against ([…]) (300 μM). The substrates used for other protein kinases were described previously.^8,9
(§4) Unless stated otherwise, enzymes were diluted in 50 mM Tris/HCl pH 7.5, 0.1 mM EGTA, 1 mg/ml BSA, 0.1% (v/v) 2-mercaptoethanol and assayed in 50 mM Tris/HCl pH 7.5, 0.1 mM EGTA, 0.1% (v/v) 2-mercaptoethanol.

[2] = molecular target: T2, EPH A2 (Homo sapiens, UniProt P29317); test: EPH A2 protein kinase assay; assay type: biochemical; details: for remaining activity at 10 µM: 10 μM compound; for residual kinase activity EPH A2: 1 μm compound; for remaining activity at 1 µM: 1 μM compound
T2 construct: All protein kinases were of human origin and encoded full length proteins, unless indicated otherwise; made in house
T2 sequence (P29317 591-976 limits assumed): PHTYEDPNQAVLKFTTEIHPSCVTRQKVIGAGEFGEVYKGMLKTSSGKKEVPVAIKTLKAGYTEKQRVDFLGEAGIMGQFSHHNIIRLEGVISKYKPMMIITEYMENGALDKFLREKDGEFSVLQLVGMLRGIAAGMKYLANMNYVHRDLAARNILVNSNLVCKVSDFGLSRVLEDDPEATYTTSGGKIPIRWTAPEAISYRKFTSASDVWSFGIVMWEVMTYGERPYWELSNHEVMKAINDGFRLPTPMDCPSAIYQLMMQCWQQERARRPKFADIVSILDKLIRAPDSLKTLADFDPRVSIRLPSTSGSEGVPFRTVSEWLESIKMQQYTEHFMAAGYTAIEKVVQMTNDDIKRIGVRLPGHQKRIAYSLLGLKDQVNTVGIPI
Text: as §1, §2, §3, §4

[3] = read-out: residual kinase activity ERK8
[4] = read-out: residual kinase activity EPH A2
[5] = ERK8, 5 μM ATP, read-out: residual kinase activity
[6] = EPH A2, read-out: residual kinase activity

SMILES | remaining activity at 10 µM [1, 3] | residual kinase activity ERK8 [1] | remaining activity at 10 µM [2, 4] | residual kinase activity EPH A2 [2] | remaining activity at 1 µM [1, 5] | remaining activity at 10 µM [1, 5] | remaining activity at 1 µM [2, 6] | remaining activity at 10 µM [2, 6]
O=C(NCCCNc1nc(Nc2cccc(F)c2)ncc1Br)C1CCC1 [Compound A, cyclobutanecarboxylic acid {3-[5-bromo-2-(3-fluoro-phenylamino)-pyrimidin-4-ylamino]-propyl}-amide, reference compound] | 3% | 9% | 60% | 87% | – | – | – | –
O=C(NCCCNc1nc(Nc2cccc(F)c2)ncc1C1CC1)C1CCC1 [Example 23, Cyclobutanecarboxylic acid {3-[5-cyclopropyl-2-(3-fluoro-phenylamino)-pyrimidin-4-ylamino]-propyl}-amide] | 6% | 14% | 71% | 71% | 14% | 6% | 71% | 71%
O=C(NCCCNc1nc(Nc2cccc(N3CCCC3=O)c2)ncc1C1CC1)c1cccs1 [Example 47, Thiophene-2-carboxylic acid (3-{5-cyclopropyl-2-[3-(2-oxo-pyrrolidin-1-yl)-phenylamino]-pyrimidin-4-ylamino}-propyl)-amide. Hydrochloride salt] | – | – | – | – | 33% | 10% | 47% | 76%
O=C(NCCCNc1nc(Nc2cccnc2)ncc1C1CC1)c1cccs1 [Example 50, Thiophene-2-carboxylic acid {3-[5-cyclopropyl-2-(pyridin-3-ylamino)-pyrimidin-4-ylamino]-propyl}-amide] | – | – | – | – | 13% | 5% | 88% | 73%
